From patent US8546389B2 (priority 2010, dated 2013) come the findings set out here.

A word on the pEC50: it is −log10 of the EC50, conventionally taken in molar units. In general, pIC50 refers to −log10 of the IC50, conventionally taken in molar units.

pEC50, pIC50: −log10 of the molar value.

For experiment [1], the system named is genotype 1b (Con 1) subgenomic replicon cell line. Nature of the experiment: HCV replicon assay, genotype 1b (Renilla luciferase). Type of experiment: cell-based, HCV genotype 1b (Con 1). The settings on record: Hepatitis C virus; genotype 1b replicon, 72 hours, luciferase; read-out: genotype 1b EC50 (range class). Here is the method:
A genotype 1b (Con 1) subgenomic replicon cell line based on Blight et al., Science 2000 290: 1972-1974, modified to express a Renilla luciferase reporter gene was used to assess antiviral activity of test compounds. Cell cultures were maintained in a sub-confluent state in DMEM with glutamine, 10% heat-inactivated foetal bovine serum (FBS) and G418 (Geneticin®).
For assay, cells were seeded at a density of 7000 cells/well into 96 well tissue culture trays in culture media lacking G418. Compounds were tested in a three fold dilution series, for example starting from 50 uM. After 72 hours incubation at 37° C. and 5% CO2, Renilla luciferase activity was quantified via the Promega Renilla Luciferase or Renilla-Glo™ Luciferase Assay Systems (Promega corporation. The same method was employed for replicon assays using subgenomic genotype 1a and 2a replicon cell lines with a seeding cell density of 5000 cells/well for the 2a cell lines.
The compound concentration that reduced luciferase activity by 50% (EC50) was calculated using non-linear regression.
A general note: In antiviral work, replicon cells carry a viral genome segment that copies itself.

The next experiment has as its target 1b (BK) NS5bΔ21 (Hepatitis C virus genotype 1b (isolate BK) (HCV), UniProt P26663). Nature of the experiment: HCV polymerase inhibition assay, genotype 1b. Type of experiment: biochemical, HCV genotype 1b (BK). As to conditions: 1b (BK) NS5bΔ21, 33P-GTP incorporation; read-out: 1b polymerase IC50 (range class). Here is the method: HCV polymerase reactions were carried out using a modified method of Howe et al., Antimicrobial Agents and Chemotherapy 2004 48(12): 4813-4821. Reactions contained a final concentration of, 0.5% DMSO, 50 nM, 1b (BK) NS5bΔ21, 20 mM Tris-HCl pH 7.5, 5 mM MgCl2, 5 mM MnCl2, 3 mM DTT, 0.05% BSA, 0.2 U/μL RNasin, 10 μg/mL Poly(rC) template, GTP (at Km) and 0.05 μCi/μL ^33P-GTP in a total reaction volume of 50 μL. Compounds were tested in a three fold dilution series, for example starting from 50 μM. Reactions were initiated with the addition of GTP and terminated after 1 hour with 50 μL ice cold 0.2 M EDTA. Terminated reactions were transferred to DEAE 96-well filter plates, unincorporated nucleotides washed from the filters and 50 μL scintillation fluid added prior to reading on a scintillation counter. Similarly, a genotype 3a (VRL-69) NS5bΔ21 polymerase enzyme assay was conducted using essentially the same method.
The compound concentration that reduced ^33P-GTP incorporation by 50% (IC50) was calculated using non-linear regression.

Chain of 1b (BK) NS5bΔ21 (P26663 2420-2989): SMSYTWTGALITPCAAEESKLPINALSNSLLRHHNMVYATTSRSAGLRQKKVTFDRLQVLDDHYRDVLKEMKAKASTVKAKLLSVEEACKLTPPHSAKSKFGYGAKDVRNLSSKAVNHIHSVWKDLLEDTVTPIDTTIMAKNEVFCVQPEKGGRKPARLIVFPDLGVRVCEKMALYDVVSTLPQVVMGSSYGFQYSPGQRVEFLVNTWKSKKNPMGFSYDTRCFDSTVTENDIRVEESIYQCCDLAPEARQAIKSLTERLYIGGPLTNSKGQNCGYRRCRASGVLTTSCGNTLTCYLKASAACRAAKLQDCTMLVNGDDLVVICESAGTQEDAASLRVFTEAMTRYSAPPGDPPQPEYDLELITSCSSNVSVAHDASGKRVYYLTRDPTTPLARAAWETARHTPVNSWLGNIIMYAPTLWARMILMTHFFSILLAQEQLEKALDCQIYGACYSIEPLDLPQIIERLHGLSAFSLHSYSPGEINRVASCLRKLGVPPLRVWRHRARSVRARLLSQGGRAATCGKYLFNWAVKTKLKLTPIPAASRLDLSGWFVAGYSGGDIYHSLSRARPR

Take `CNC(=O)CCC(=O)NCCCN(c1cc2nn(-c3ccc(Br)cc3)c(C(=O)NC)c2cc1C1CC1)S(C)(=O)=O` [Compound 152]: in experiment [1], the pEC50 is 4.30 to 5.00. Besides, the pIC50 on 1b (BK) NS5bΔ21 is greater than 6.00.
On the same counts, the results for `CCN(c1cc2nn(-c3ccc(F)cc3)c(C(=O)NC)c2cc1OCC#N)S(C)(=O)=O` [Compound 170] are greater than 6.00 and greater than 6.00.
As for `CNC(=O)c1c2cc(C3CC3)c(N(CCC(F)(F)F)S(C)(=O)=O)cc2nn1-c1ccc(Cl)cc1` [Compound 245], the pEC50 in experiment [1] was greater than 6.00. Besides, the pIC50 at 1b (BK) NS5bΔ21 was greater than 6.00.
For the molecule `CNC(=O)c1c2cc(C3CC3)c(N(CCCO)S(C)(=O)=O)cc2nn1-c1ccc(C(C)C)cc1` [Compound 50, 5-cyclopropyl-6-[(3-hydroxypropyl)(methylsulfonyl)amino]-N-methyl-2-[4-(propan-2-yl)-phenyl]-2H-indazole-3-carboxamide], the negative logarithm of the EC50 (pEC50) in experiment [1] was 5.00 to 6.00. For the same molecule, the pIC50 on 1b (BK) NS5bΔ21 was 5.00 to 6.00.
`CNC(=O)c1c2cc(C3CC3)c(N(CCCNC(=O)c3cnoc3)S(C)(=O)=O)cc2nn1-c1ccc(Br)cc1` [Compound 168]: the negative-log EC50 (pEC50) in experiment [1] was greater than 6.00. Moreover, the negative-log IC50 (pIC50) on 1b (BK) NS5bΔ21 was greater than 6.00.
Consider `CCn1ccnc1-c1cc2nn(-c3ccc(F)cc3)c(C(=O)NC)c2cc1C1CC1` [Compound 84, 5-Cyclopropyl-6-(1-ethyl-1H-imidazol-2-yl)-2-(4-fluorophenyl)-N-methyl-2H-indazole-3-carboxamide], for which the negative logarithm of the EC50 (pEC50) in experiment [1] was 4.30 to 5.00.
On to `CNC(=O)c1c2cc(C3CC3)c(N(CCC(=O)NS(=O)(=O)c3cccs3)S(C)(=O)=O)cc2nn1-c1ccc(Br)cc1` [Compound 153], for which, in experiment [1], the pEC50 is 4.30 to 5.00. Further, at 1b (BK) NS5bΔ21, the negative-log IC50 (pIC50) is greater than 6.00.
For `CNC(=O)c1c2cc(C3CC3)c(N(CCCO)S(C)(=O)=O)cc2nn1-c1ccc(OC)cc1` [Compound 55, 5-cyclopropyl-6-[(3-hydroxypropyl)(methylsulfonyl)amino]-2-(4-methoxyphenyl)-N-methyl-2H-indazole-3-carboxamide] the same measures were 5.00 to 6.00 and 5.00 to 6.00.
For `CCOC(=O)CCCN(CC)c1cc2nn(-c3ccc(Br)cc3)c(C(=O)NC)c2cc1C1CC1` [Compound 225] the same measures were greater than 6.00 and 5.00 to 6.00.
For the molecule `CNC(=O)c1c2cc(C3CC3)c(N(CCCC(=O)OC(C)C)S(C)(=O)=O)cc2nn1-c1ccc(Br)cc1` [Compound 220], in experiment [1], the pEC50 was greater than 6.00. For the same molecule, on 1b (BK) NS5bΔ21, the pIC50 was greater than 6.00.
`CNC(=O)c1c2cc(C3CC3)c(N(CC(C)O)S(C)(=O)=O)cc2nn1-c1ccc(Br)cc1` (centres unmarked) [Compound 106, 2-(4-Bromophenyl)-5-cyclopropyl-6-[2-hydroxypropyl(methylsulfonyl)amino]-N-methyl-2H-indazole-3-carboxamide]: in experiment [1], the pEC50 is 5.00 to 6.00. Besides, the pIC50 on 1b (BK) NS5bΔ21 was 5.00 to 6.00.
`CNC(=O)c1c2cc(C3CC3)c(N(CCC[S+](C)[O-])S(C)(=O)=O)cc2nn1-c1ccc(Br)cc1` (centres unmarked) [Compound 101, 2-(4-bromophenyl)-5-cyclopropyl-N-methyl-6-[3-methylsulfinylpropyl(methylsulfonyl)amino]-2H-indazole-3-carboxamide]: in experiment [1], the negative logarithm of the EC50 (pEC50) was 5.00 to 6.00. The pIC50 on 1b (BK) NS5bΔ21 is greater than 6.00.
On the same counts, the results for `CNC(=O)c1c2cc(C3CC3)c(N(CCCNCc3ccc(OC)cc3)S(C)(=O)=O)cc2nn1-c1ccc(Br)cc1` [Compound 210] are 5.00 to 6.00 and 5.00 to 6.00.
For `CNC(=O)c1c2cc(C3CC3)c(N(CCCS(N)(=O)=O)S(C)(=O)=O)cc2nn1-c1ccc(Br)cc1` [Compound 102, 2-(4-Bromophenyl)-5-cyclopropyl-N-methyl-6-[methylsulfonyl(3-sulfamoylpropyl)amino]-2H-indazole-3-carboxamide] the same measures were 5.00 to 6.00 and greater than 6.00.
As to `CNC(=O)c1c2cc(C3CC3)c(N(CCCN3C(=O)CCC3=O)S(C)(=O)=O)cc2nn1-c1ccc(Br)cc1` [Compound 69, 2-(4-bromophenyl)-5-cyclopropyl-6-{[3-(2,5-dioxopyrrolidin-1-yl)propyl](methylsulfonyl)amino}-N-methyl-2H-indazole-3-carboxamide], in experiment [1], the negative logarithm of the EC50 (pEC50) was greater than 6.00. The negative-log IC50 (pIC50) at 1b (BK) NS5bΔ21 was greater than 6.00.
On to `CNC(=O)c1c2cc(C3CC3)c(N(CCCOC)S(C)(=O)=O)cc2nn1-c1ccc(Cl)cc1` [Compound 243], for which the pEC50 in experiment [1] is greater than 6.00. Besides, the pIC50 at 1b (BK) NS5bΔ21 is greater than 6.00.
As for `CNC(=O)c1c2cc(C3CC3)c(N(CCC(=O)NS(=O)(=O)c3ccccc3)S(C)(=O)=O)cc2nn1-c1ccc(Br)cc1` [Compound 150], in experiment [1], the pEC50 was 4.30 to 5.00. Further, the pIC50 on 1b (BK) NS5bΔ21 was greater than 6.00.
For `CNC(=O)c1c2cc(C3CC3)c(N(CCCO)S(C)(=O)=O)cc2nn1-c1ccc(NCC(C)C)cc1` [Compound 122] the same measures were greater than 6.00 and 5.00 to 6.00.
Turning to `CCN(c1cc2nn(-c3ccc(F)cc3)c(C(=O)NC)c2cc1C(C)C)S(C)(=O)=O` [Compound 130], the pEC50 in experiment [1] is 4.30 to 5.00.
Still for that read-out and setting: with `CNC(=O)c1c2cc(C3CC3)c(-c3ncc(CO)s3)cc2nn1-c1ccc(F)cc1` [Compound 159] the figure was 4.30 to 5.00.
Consider `CCN(C)S(=O)(=O)c1cc2nn(-c3ccc(F)cc3)c(C(=O)NC)c2cc1C1CC1` [Compound 227], for which the pEC50 in experiment [1] is 4.30 to 5.00.
For the molecule `CNC(=O)c1c2cc(OC)c(N(CCO)S(C)(=O)=O)cc2nn1-c1ccc(F)cc1` [Compound 12, 2-(4-fluorophenyl)-6-[2-hydroxyethyl(methylsulfonyl)amino]-5-methoxy-N-methyl-indazole-3-carboxamide], the negative-log EC50 (pEC50) in experiment [1] is 4.30 to 5.00.
Turning to `CCN(c1ccc2c(C(=O)NC)n(-c3ccc(F)cc3)nc2c1)S(C)(=O)=O` [Compound 137], the negative-log IC50 (pIC50) on 1b (BK) NS5bΔ21 was 4.30 to 5.00.
Regarding `CNC(=O)c1c2cc(C3CC3)c([C@@H]3CN(Cc4ccccc4)C[C@H]3C(C)=O)cc2nn1-c1ccc(Br)cc1` (relative stereo) [Compound 80, trans-6-(4-acetyl-1-benzylpyrrolidin-3-yl)-2-(4-bromophenyl)-5-cyclopropyl-N-methyl-2H-indazole-3-carboxamide], the negative-log EC50 (pEC50) in experiment [1] is 5.00 to 6.00.
On to `CNC(=O)c1c2cc(C3CC3)c(-c3cncn3C)cc2nn1-c1ccc(F)cc1` [Compound 158], for which the negative-log IC50 (pIC50) at 1b (BK) NS5bΔ21 was 4.30 to 5.00.
On the same count and under the same terms, with `CCN(c1cc2nn(-c3ccc(OCC(C)C)cc3)c(C(=O)NC)c2cc1C1CC1)S(C)(=O)=O` [Compound 121] the figure was 5.00 to 6.00; with `CNC(=O)c1c2cc(C3CC3)c(N(CCOC(=O)c3ccccc3C(=O)O)S(C)(=O)=O)cc2nn1-c1ccc(F)cc1` [Compound 15, 2-[(2-{[5-cyclopropyl-2-(4-fluorophenyl)-3-(methylcarbamoyl)-2H-indazol-6-yl](methylsulfonyl)amino}ethoxy)carbonyl]benzoic acid], 5.00 to 6.00; with `CNC(=O)c1c2cc(C3CC3)c(N3CCNS3(=O)=O)cc2nn1-c1ccc(Br)cc1` [Compound 103, 2-(4-Bromophenyl)-5-cyclopropyl-6-(1,1-dioxido-1,2,5-thiadiazolidin-2-yl)-N-methyl-2H-indazole-3-carboxamide], 5.00 to 6.00.
Same read-out and setting: with `CNC(=O)c1c2cc(C3CC3)c(N(CCNC(=O)Cc3nn[nH]n3)S(C)(=O)=O)cc2nn1-c1ccc(Nc2ccc(F)cc2)cc1` [Compound 31] the figure was greater than 6.00; with `CNC(=O)c1c2cc(C3CC3)c(N(CCO)S(C)(=O)=O)cc2nn1-c1ccc(Nc2cccc(O)c2)cc1` [Compound 33], 4.30 to 5.00.
